The test system of series [1] is Mus musculus. Kind of series: Antidepressant activity in Swiss albino mouse assessed as decrease in immobility time at 0.5 mg/kg, ip measured for 6 mins by forced swim test. The format is functional, organism-based. Set-up: dose 0.5 mg/kg.
Series [2] relates to Mus musculus. Kind of series: Neurotoxicity in Swiss albino mouse assessed as deffect in motor coordination at 1 mg/kg, ip measured for 2 mins by rotarod test. The settings on record: in vivo. Set-up: dose 1 mg/kg, route intraperitoneal. The format is toxicity, organism-based.
Series [3] has as its system Mus musculus. Kind of series: Antidepressant activity in Swiss albino mouse assessed as decrease in immobility duration at 0.5 mg/kg, ip administered 30 mins prior to test measured after 30 mins by tail suspension test (reference value: 79.9%). The format is functional. Set-up: scale not given: the % may be the effect or the level left. To be noted: route intraperitoneal.

Series [4] relates to Mus musculus. Kind of series: Antidepressant activity in Swiss albino mouse assessed as decrease in immobility time at 0.25 mg/kg, ip measured for 6 mins by forced swim test. The format is functional, organism-based. Set-up: dose 0.25 mg/kg.
Series [5] can be described thus: Solubility of the compound. The format is physicochemical.
The test system of series [6] is Mus musculus. In words: Antidepressant activity in Swiss albino mouse assessed as decrease in immobility time at 30 mg/kg, ip measured for 6 mins by forced swim test. It is filed as functional, organism-based. The arrangement: dose 30 mg/kg.
The test system of series [7] is Mus musculus. In words: Antidepressant activity in Swiss albino mouse assessed as decrease in immobility duration at 30 mg/kg, ip administered 30 mins prior to test measured after 30 mins by tail suspension test (reference value: 79.9%). The format is functional. Set-up: scale not given: the % may be the effect or the level left. To be noted: route intraperitoneal.

Activity calls are given as the source filed them. The calls are words filed in the database; no cut-off is given here.

Regarding `COc1ccc(-c2cc3cc(C=O)cc(C)c3oc2=O)c(OC)c1OC`, in the series on Mus musculus [1], the outcome was Active. Also, the Activity result is “Non-toxic” with Mus musculus [2] and 47.3% in the series with Mus musculus [3]. In the case of `COc1ccc(-c2cc3cc(C=O)cc(C)c3oc2=O)cc1`, the Activity with Mus musculus [3] is on record as 78.1%. In the case of `COc1ccc(-c2cc3cc(C=O)cc(C)c3oc2=O)cc1OC`, the result with Mus musculus [1] and in the series on Mus musculus [4] was Active. Also, the values for the Activity result in the series with Mus musculus [2] and with Mus musculus [3] were “Non-toxic” and 39.1%, respectively.

For the compound `CCC(C)c1cc(C=O)cc2cc(-c3ccc(OC)cc3)c(=O)oc12` (stereo not given), the Activity with Mus musculus [3] worked out at 71.4%. On to `COc1ccc(-c2cc3cc(C)c4ccccc4c3oc2=O)c(OC)c1OC`, for which the Activity in the series on Mus musculus [3] is 63.6%. In the case of `COc1ccc(-c2cc3cc(C)c4ccccc4c3oc2=O)cc1OC`, in series [5], the solubility result is “Insoluble”.

`COc1ccccc1-c1cc2cc(C=O)cc(C)c2oc1=O`: in series [5], the solubility result was “Insoluble”. For `COc1ccc(-c2cc3cc(C)c4ccccc4c3oc2=O)cc1`, the outcome in the series with Mus musculus [1] and in the series with Mus musculus [4] was Active. Further, the figures for the Activity result in the series on Mus musculus [2] and in the series on Mus musculus [3] were “Non-toxic” and 49.9%, respectively.

As for `CN(C)CCCN1c2ccccc2CCc2ccccc21` [IMIPRAMINE], the outcome in the series on Mus musculus [6] was Active. Further, the Activity in the series with Mus musculus [7] came out at 20.6%. For `CCC(C)c1cc(C=O)cc2cc(-c3ccc(OC)c(OC)c3)c(=O)oc12` (stereo not given), the Activity with Mus musculus [3] is reported as 72.5%. On the same count and under the same terms, then `CCC(C)c1cc(C=O)cc2cc(-c3cccc(OC)c3)c(=O)oc12` (stereo not given), with 70.6%.

Source of the values: ChEMBL document CHEMBL1759998, “Discovery and synthesis of novel 3-phenylcoumarin derivatives as antidepressant agents” (Bioorg Med Chem Lett, 2011).
